Assay results from US20230181564A1, “Potent Tetrahydroquinolone Eliminates Apicomplexan Parasites” (The University of Chicago, priority 2020, published 2023).

Key:
T. gondii ΔRPS13 = assay: ΔRPS13 infection of interferon receptor knockout mice; assay type: in vivo, Toxoplasma gondii; conditions: 100,000 ΔRPS13; TAF day -1, JAG21 14 days, then tetracycline; vs either alone; not durable
Text: RPS13 Δ In vivo. This G1 arrested parasite persists in tissue culture for prolonged times in the absence of tetracycline (Hutson et al 2010), but in immune competent mice it cannot be rescued with teteracycline, or LNAME (L-N^G-Nitro arginine methyl ester, an analog of arginine) used as an antagonist of nitric oxide synthase (NOS) that inhibits NO production, or both together (Hutson et al. 2010).
In pilot studies, herein, interferon α receptor knockout mice that were not treated were observed following infection. At 7 and at 14 days following infection, spleen and liver were removed and immune peroxidase stained. At 14 days a group of mice were treated with anhydrotetracycline and when a subset of these mice died their spleen and liver were removed and immune peroxidase stained.
As in the pilot studies, this RPS13 Δ parasite also was used to infect interferon α receptor knockout mice in a treatment study. In this separate study, groups of mice were infected with RPS13 Δ. […] At the time they appeared to have substantial illness or at the termination of the experiment they were euthanized, tissues fixed in formalin and stained with hematoxylin and eosin or immunoperoxidase stained and parasite burden was assessed.

[1] = system: T. gondii EGS strain bradyzoites; assay: In vitro challenge assay for EGS strain bradyzoites in HFF; assay type: cell-based, Toxoplasma gondii; conditions: 500 nM
Protocol: PBS Sol/Toxicity pH7.4 refers to solubility of the compound in Phosphate Buffered Saline (PBS) at pH7.4. […] Tachy/Brady IC50 was determined in studies in which cultures of parasites in HFF were treated with varying concentrations of the compound and there was 50% inhibition of the replication (number) of parasites. Parasites were RH-YFP expressing tachyzoites (Tachy) and EGS (Brady) strains. Studies of effects of inhibitors on HFF or on T.gondii tachyzoites were performed with triplicate wells in at least two biological replicate experiments. Studies of effects on bradyzoites were performed at least twice in at least two biological replicate experiments. Compounds with much less inhibition of mammalian than T. gondii cytochrome bc in the saffarine enzyme assay (indicated by **) provide potential to further develop compounds, if unanticipated toxicity occurs from JAG21. […]
Cells were fixed using 4% paraformaldehyde and stained with Fluorescein-labeled Dolichos Biflorus Agglutinin, DAPI, and BAG1. […] Effects of compounds were quantitated by counting cysts in controls and treated cultures. Dolichos staining delimited structures and single organisms that remained were counted in a representative field of view. This was then multiplied by a factor determined by the total area of the cover slip in order to estimate the number of cysts and organisms in each condition. […]

[2] = system: T. gondii (Prugneaud strain expressing luciferase) tachyzoites; assay: Acute infection with Prugneaud luciferase tachyzoites in Balb/C mice (IVIS, brain cysts); assay type: in vivo, Toxoplasma gondii
Protocol: IVIS. Balb/C mice were infected intraperitoneally (IP) with 20×10^3 T. gondii (Prugneaud strain expressing luciferase) tachyzoites. Treatment began 2 hours later with JAG21 (5 mg/kg) which was dissolved in DMSO, administered IP in a total volume of 0.05 ml. Mice were imaged every second day starting on day 4 post infection using an IVIS Spectrum (Caliper Life Sciences) for […], with medium binning, 20 minutes post injection with 150 mg/kg of D-luciferin potassium salt solution.
Brain cysts. Brain cysts were searched for in paraffin imbedded tissue of the surviving Prugneaud strain infected treated Balb/C mice in the IVIS study, 30 days after infection which was 16 days after treatment had been discontinued. All treated mice had survived. There were no surviving untreated mice in those experiments.

hERG = hERG (Homo sapiens, UniProt Q12809); assay: hERG liability; assay type: in vitro ADME
hERG, sequence (Q12809 whole entry): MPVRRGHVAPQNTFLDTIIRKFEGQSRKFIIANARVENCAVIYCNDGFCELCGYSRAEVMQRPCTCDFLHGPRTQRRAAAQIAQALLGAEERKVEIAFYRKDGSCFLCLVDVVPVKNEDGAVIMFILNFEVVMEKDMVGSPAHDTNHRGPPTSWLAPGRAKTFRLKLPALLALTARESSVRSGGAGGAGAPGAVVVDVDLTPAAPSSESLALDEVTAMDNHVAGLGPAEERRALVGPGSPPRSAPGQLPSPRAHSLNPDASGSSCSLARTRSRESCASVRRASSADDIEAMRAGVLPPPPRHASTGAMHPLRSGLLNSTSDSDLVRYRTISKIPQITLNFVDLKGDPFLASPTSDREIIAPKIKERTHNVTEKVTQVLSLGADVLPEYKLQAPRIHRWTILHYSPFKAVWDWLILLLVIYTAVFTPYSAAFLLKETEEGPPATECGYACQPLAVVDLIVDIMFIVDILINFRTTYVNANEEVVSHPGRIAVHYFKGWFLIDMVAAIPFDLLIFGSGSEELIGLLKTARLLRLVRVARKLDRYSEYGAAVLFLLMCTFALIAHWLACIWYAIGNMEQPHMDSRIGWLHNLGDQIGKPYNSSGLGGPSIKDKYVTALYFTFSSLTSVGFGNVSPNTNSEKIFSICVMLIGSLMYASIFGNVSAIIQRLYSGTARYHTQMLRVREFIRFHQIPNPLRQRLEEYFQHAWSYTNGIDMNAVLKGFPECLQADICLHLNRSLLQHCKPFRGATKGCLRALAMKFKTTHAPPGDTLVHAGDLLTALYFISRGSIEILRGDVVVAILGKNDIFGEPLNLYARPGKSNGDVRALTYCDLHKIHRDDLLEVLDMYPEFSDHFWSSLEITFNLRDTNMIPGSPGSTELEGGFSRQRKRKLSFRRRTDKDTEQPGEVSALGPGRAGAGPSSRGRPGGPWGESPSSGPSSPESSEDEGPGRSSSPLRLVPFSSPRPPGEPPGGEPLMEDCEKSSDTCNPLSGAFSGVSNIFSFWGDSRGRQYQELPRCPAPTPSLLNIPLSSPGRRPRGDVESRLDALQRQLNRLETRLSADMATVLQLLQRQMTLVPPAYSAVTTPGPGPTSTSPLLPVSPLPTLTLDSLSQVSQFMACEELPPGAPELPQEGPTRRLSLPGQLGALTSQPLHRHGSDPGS
Protocol: Structure Activity Relationship (SAR) and comparison of effect on T.gondii and HFF enzyme activity. […] The MDCK-MDR1 Permeability Assay was also performed. […] These were measured by Chem Partners.

bovine cytochrome bc1 = target: T1, bovine cytochrome bc1 (Bos taurus, UniProt P00157); assay: Bovine cytochrome bc1 activity assay; assay type: biochemical; conditions: read-out: Inhibition of bovine Cytbc1 activity
T1 construct: Whole fresh bovine heart was collected after slaughter; from tissue; host or cells: bovine heart mitochondria; DDM-solubilised, DEAE-Sepharose, Sephacryl S-300, PEG fractionation
Protocol: Bovine cytochrome bc1 activity assays. Bovine cytochrome bc, inhibition assay was carried out in 50 mM KPi pH 7.5, 2 mM EDTA, 10 mM KCN, 30 μM equine heart cytochrome c (Sigma Aldrich), and 2.5 nM bovine cytochrome bc, at room temperature. 20 mM inhibitors dissolved in DMSO were added to the assay at a desired concentration without prior incubation. […] The reaction was initiated by the addition of 50 μM decylubiquinol (Abcam). The reduced cytochrome c was monitored by the different absorption between 550 and 542 nm using extinction coefficient of 18.1 mM^−1 cm^−1 in a SPECTRAmax Plus 384 UV-visible Spectrometer. The initial kinetic rate is determined as a zero-order reaction and used as the specific activity of cytochrome bc1.

Compound: Cc1[nH]c2c(c(=O)c1-c1ccc(Oc3ccc(OC(F)(F)F)cc3)cc1)CCCC2 [JAG021, 2-methyl-3-(4-(4-(trifluoromethoxy)phenoxy)phenyl)-5,6,7,8-tetrahydroquinolin-4-one]
- Survival time, JAG21 combined with tafenoquine (T. gondii ΔRPS13): improved time of survival
- EGS bradyzoites in treated cultures [1]: not seen
- Luciferase tachyzoites in luminescence studies ([2]; 5 mg/kg/day IP): eliminates illness and T. gondii Type II Prugneaud luciferase tachyzoites completely
- Cysts in brains ([2]; 5 mg/kg/day for 14 days from start of infection, brains evaluated at 30 days): no cysts being found
- Survival of infected mice ([2]; Balb/C mice, JAG21 5 mg/kg IP for 14 days): 100%
- hERG liability (hERG): no hERG liability
- inhibition at 0.1 µM (bovine cytochrome bc1; 0.1 μM): 36%
- inhibition at 1 µM (bovine cytochrome bc1; 1 μM): 63%
